Laboratory results reported in ChEMBL document CHEMBL1201862, “PubChem BioAssay data set” (2004).
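Step 1: Grow cells in 96-well plates. Step 2: Expose to compound for 48 hours at 5 concentrations. Step 3: Interpolate endpoints linearly; if unreached, use highest concentration. Abbreviation: GI50, concentration required for 50% inhibition of growth.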 Activity calls are given as the source filed them. Rule as the data show it: active = GI50 up to about 1.1 µM and inactive = higher.

What was measured:
Experiment in all cases: NCI anticancer screen, dose series, 48 h
A498 = test system: A498
HCC 2998 = test system: HCC 2998
HOP-62 = test system: HOP-62
HT-29 = test system: HT-29
KM12 = test system: KM12
MDA-MB-231 = test system: MDA-MB-231
NCI-H460 = test system: NCI-H460
NCI/ADR-RES = test system: NCI/ADR-RES
OVCAR-3 = test system: OVCAR-3
PC-3 = test system: PC-3
SF-539 = test system: SF-539
SK-MEL-5 = test system: SK-MEL-5
TK-10 = test system: TK-10
UACC-62 = test system: UACC-62
UO-31 = test system: UO-31
HL-60 = test system: HL-60
HOP-92 = test system: HOP-92
SF-295 = test system: SF-295
SNB-19 = test system: SNB-19
UACC-257 = test system: UACC-257

Measured: GI50

CC(=O)O.CN1CCN(CN2C(=O)C3C4C=CC(C3C2=O)C2C3C(=O)N(CN5CCN(C)CC5)C(=O)C3C42)CC1 (stereo unspecified)
inactive: A498 > 55.3 µM | HCC 2998 22.2 µM | HOP-62 > 50 µM | HT-29 25.3 µM | KM12 22.3 µM | MDA-MB-231 24.4 µM | NCI-H460 16.3 µM | NCI/ADR-RES 24.2 µM | OVCAR-3 24.3 µM | PC-3 33.7 µM | SF-539 21.1 µM | SK-MEL-5 23.4 µM | TK-10 45.3 µM | UACC-62 20.7 µM | UO-31 25.2 µM

COc1cc([C@@H]2c3cc4c(cc3[C@H](OC3OC5COC(C(C)C)OC5C(O)C3O)C3COC(=O)[C@@H]32)OCO4)cc(OC)c1O (stereo partly specified)
inactive: A498 10.7 µM | HL-60 1.99 µM | HOP-62 11.7 µM | HOP-92 11.9 µM | HT-29 2.97 µM | KM12 16.1 µM | MDA-MB-231 14.1 µM | NCI-H460 2.04 µM | NCI/ADR-RES 9.38 µM | OVCAR-3 11.8 µM | PC-3 4.08 µM | SF-295 8.22 µM | SF-539 2.72 µM | SK-MEL-5 7.33 µM | SNB-19 14.6 µM | TK-10 23.5 µM | UACC-257 8.87 µM | UACC-62 11.1 µM | UO-31 10.2 µM

CCC1(CC)C(=O)CC[C@@]2(C)C1=CC[C@H]1[C@@H]3CC[C@H](O)[C@@]3(C)CC[C@@H]12
inactive: A498 23.8 µM | HL-60 18.6 µM | HOP-62 19.1 µM | HOP-92 37.5 µM | HT-29 15 µM | KM12 32.1 µM | MDA-MB-231 47.9 µM | NCI-H460 16.3 µM | NCI/ADR-RES 43.2 µM | OVCAR-3 19.7 µM | PC-3 30.3 µM | SF-295 22.8 µM | SF-539 29.2 µM | SK-MEL-5 47.3 µM | SNB-19 24 µM | TK-10 19.9 µM | UACC-257 26.7 µM | UACC-62 54.7 µM | UO-31 18.4 µM

COc1ccc(C)c2c1N[C@](C)([C@]1(C)Nc3c(OC)ccc(C)c3C1=O)C2=O
inactive: A498 > 100 µM | HCC 2998 > 100 µM | HOP-62 94.4 µM | HOP-92 38 µM | HT-29 > 100 µM | KM12 76.9 µM | MDA-MB-231 > 100 µM | NCI-H460 > 100 µM | NCI/ADR-RES > 100 µM | OVCAR-3 > 100 µM | PC-3 > 100 µM | SF-295 41.4 µM | SF-539 > 100 µM | SK-MEL-5 > 100 µM | SNB-19 68.9 µM | UACC-257 > 100 µM | UACC-62 > 100 µM | UO-31 > 100 µM
